This is an account of results in patent publication US12741974B2, “Compounds constituting C20-modified salinomycin derivatives, a method for obtaining the same, a composition containing the same, a use of said compounds and a method for obtaining an intermediate product” (FILECLO SP. Z O.O., priority 2020, dated 2021).

For orientation: IC50 means the concentration that gives 50% inhibition.

The test system of one series is B16-F0 (murine melanoma). As to the kind of experiment: In vitro cytotoxicity test, SRB assay, 72 h incubation with compound. The class given is cell-based. To be noted: for IC50: B16-F0 murine melanoma, SRB, 72 h; for SI B16-F0: selectivity coefficient, BALB/3T3 versus B16-F0. As for the experimental part:
(§1) In vitro cytotoxicity tests were performed according to the procedure described below. […] The solvent for further dilutions was a culture medium.
(§2) The experiments were repeated at least 3 times.

The test system of a further series is Hs294T (human melanoma). The series is described as above. The class given is cell-based. Conditions: for IC50: Hs294T human melanoma, SRB, 72 h; for SI Hs294T: selectivity coefficient, BALB/3T3 versus Hs294T. As for the experimental part: as §1, §2
Series [1] has as its system LoVo (drug-sensitive human colon cancer). The series is described as above. The class given is cell-based. To be noted: for IC50: LoVo drug-sensitive human colon cancer, SRB, 72 h; for SI LoVo: selectivity coefficient, BALB/3T3 versus LoVo. As for the experimental part: as §1, §2
The test system of series [2] is LoVo/DX (drug-resistant human colon cancer). Described as above. The class given is cell-based. Conditions: for IC50: LoVo/DX drug-resistant human colon cancer, SRB, 72 h; for RI: drug resistance coefficient, LoVo/DX versus LoVo, 4320 min; for SI LoVo/DX: selectivity coefficient, BALB/3T3 versus LoVo/DX. As for the experimental part: as §1, §2
Series [3] has as its system MCF-7 (human breast cancer). The series is described as above. The class given is cell-based. Conditions: for IC50: MCF-7 human breast cancer, SRB, 72 h; for SI MCF-7: selectivity coefficient, BALB/3T3 versus MCF-7. As for the experimental part: as §1, §2
The test system of series [4] is MV-4-11 (human biphenotypic leukaemia). In words: In vitro cytotoxicity test, MTT assay, 72 h incubation with compound. The class given is cell-based. Conditions: for IC50: MV-4-11 human biphenotypic leukaemia, MTT, 72 h; for SI MV-4-11: selectivity coefficient, BALB/3T3 versus MV-4-11. As for the experimental part:
as §1, §2
After 4 hours of incubation at 37° C., 80 μL of lysis buffer was added to each well.
On the technique in general: Tetrazolium dyes change colour on reduction, which living cells bring about.

A short description of series [5]: In vitro cytotoxicity test on normal cells, SRB assay, 72 h incubation with compound. The class given is cell-based. Conditions: mouse, balb/3t3 cells, normal murine fibroblasts, read-out: IC50 BALB/3T3. The method, then:
(§3) Normal murine BALB/3T3 fibroblasts were also used in the tests for determining the selectivity coefficients of the compounds used in the assays.
as §1, §2
For orientation: The SRB assay estimates cell density from bound dye.

Series [6] concerns advanced head, neck, breast and ovarian cancer. Conditions: small group of patients with advanced head; cited from earlier work.
In series [7] the test system is BALB/3T3 (normal murine fibroblasts). As to the kind of experiment: In vitro cytotoxicity test on normal cells, SRB assay, 72 h incubation with compound. The class given is cell-based. Conditions: read-out: IC50 BALB/3T3. The method, then: as §3, §1, §2

Consider `CC[C@@H](C(=O)[C@@H](C)[C@@H](O)[C@H](C)[C@@H]1O[C@@H]([C@@H](CC)C(=O)O)CC[C@@H]1C)[C@H]1O[C@]2(C=C[C@@H](O)[C@]3(CC[C@@](C)([C@H]4CC[C@](O)(CC)[C@H](C)O4)O3)O2)[C@H](C)C[C@@H]1C` [salinomycin], for which the 50% inhibitory concentration (IC50) in the series on B16-F0 (murine melanoma) (Mus musculus, B16F0) worked out at 630 nM; with Hs294T (human melanoma) (Hs 294T) it was 560 nM; in series [1] it was 210 nM; in [2], 480 nM; in series [3] (MCF7), 2100 nM; in series [4] (MV4-11) it was 70 nM. Moreover, the “SI B16-F0” value in the series with B16-F0 (murine melanoma) worked out at 3.3. Also, the “SI Hs294T” value in the series on Hs294T (human melanoma) came out at 3.7. The “SI LoVo” value in series [1] came to 9.9. In addition, the RI in series [2] is given as 2.3. Further, in [2], the “SI LoVo/DX” value amounted to 4.3. The “SI MCF-7” value in series [3] is given as 1.0. Further, the “SI MV-4-11” value in series [4] is 29.7. Further, the CC50 at 72 h in series [5] was determined as 2080 nM. In series [6], the “effect on cancer progression in patients” value was “inhibition of cancer progression”. The “side effects in patients” value in [6] is recorded as “no acute side effects”.

On to `CC[C@@H](C(=O)[C@@H](C)[C@@H](O)[C@H](C)[C@@H]1O[C@@H]([C@@H](CC)C(=O)O)CC[C@@H]1C)[C@H]1O[C@]2(C=C[C@H](NC(=O)c3ccccc3)[C@]3(CC[C@@](C)([C@H]4CC[C@](O)(CC)[C@H](C)O4)O3)O2)[C@H](C)C[C@@H]1C` [(15 epi), reference compound], for which, in the series on B16-F0 (murine melanoma), the IC50 worked out at 400 nM and the “SI B16-F0” value turned out to be 2.5. For the same compound, in the series with Hs294T (human melanoma), the IC50 came to 80 nM and the “SI Hs294T” value came out at 12.5. In [1], the concentration for half-maximal inhibition (IC50) is 200 nM and the “SI LoVo” value is listed as 5. Besides, in [2], the IC50 was 630 nM, the RI is on record as 3 and the “SI LoVo/DX” value was determined as 1.6. Moreover, in series [3], the IC50 came to 1100 nM and the “SI MCF-7” value was 0.9. Besides, in series [4], the IC50 came to 33 nM and the “SI MV-4-11” value is reported as 30. Further, in [7], the CC50 stood at 1000 nM.
